Consider two compounds from US20120014880A1, “METHOD FOR THE PREVENTION AND TREATMENT OF ESSENTIAL TREMOR BY REGULATING alpha1G T-TYPE CALCIUM CHANNEL OR BY T-TYPE CALCIUM CHANNEL BLOCKERS” (Korea Advanced Institute of Science and Technology, priority 2007, published 2012).

Molecules are shown by their SMILES.

In this assay the test system is harmaline induced tremor. Briefly: Inhibition of harmaline induced tremor by T-type channel blockers, measured with tremor quantification apparatus. In kind it is in vivo, mouse. From the text: In the screening method of the present invention, symptoms of essential tremor of step 3) are involuntary, regular movements of hands, arms, head, face, vocal band, trunk or legs. The symptoms can be checked by movement artifact of electroenphalograph (EEG) or tremor quantification apparatus, but not always limited thereto. The tremor quantification apparatus herein is to detect tremor of the mouse, in which stainless test cage is hung on the support and the bottom of the cage is attached with accelerometer connected with electric wire to analog-digital converter so that the generated analog signals can be converted into digital signals recognizable by computer. Thereby, tremor of the mouse can be measured by analyzing the digital signals recognized by computer. […] When the strength of oscillation for 5 seconds under the frequency of 10-18 Hz, that is the characteristic frequency of harmaline induced tremor, was at least 65 dB, it was diagnosed as tremor and the time point of break (onset), duration, strength, and the maximum frequency were all measured and compared between the wild type mice and the transgenic mice. The method for measuring tremor is developed on the basis of described method in the following references (Long M A. et al., J. Neurosci. 2002 Dec. 15, 22(24):10898-905; Milner, T E. et al., J. Neurophysiol. 1995 June, 73(6):2568-77).
The α1G−/−transgenic mice generated in Example 1 and the wild-type mice were administered with the tremor inducing agents, oxotremorine (0.3 mg/kg), penitrem A (1.0 mg/kg) and harmaline (9 mg/kg) respectively by intraperitoneal injection to induce tremor. Tremor was investigated by using movement artifact of electroenphalograph (EEG) and tremor quantification apparatus designed by the present inventors. […] The accelerometer was connected to analog-digital converter (Digidata1320, Axon instrument Inc) by electric wire so that the generated analog signals could be converted into digital signals recognizable by computer. Thereby, tremor of the mouse was measured by analyzing the digital signals recognized by computer. The accelerometer was quipped to the test cage where the animals were located, and the test cage was hung in the air. The level of tremor of the animal was quantified by measuring the oscillation of the test cage. […] When the strength of oscillation for 5 seconds under the frequency of 10-18 Hz, that is the characteristic frequency of harmaline induced tremor, was at least 65 dB, it was diagnosed as tremor and the time point of development of tremor (onset), duration, strength, and the maximum frequency were all measured and compared between the wild type mice and the knockout mice.
The wild-type mouse (α1G+/+) was administered with 10 mg/kg of mibefradil by intraperitoneal injection 30 minutes before harmaline injection to investigate the therapeutic effect of mibefradil on harmaline induced tremor. In the meantime, osmotic pump (Model 1002, 0.25 ul/hour, Alzet) containing 20 mM of mibefradil was inserted into the brain of the wild-type mouse (α1G+/+). Two days later, the therapeutic effect on harmaline induced tremor was investigated by using the tremor quantification apparatus of Example 2.
The wild-type mice (α1G+/+) were administered with 150 mg/kg and 300 mg/kg of ethosuximide by intraperitoneal injection 30 minutes before harmaline injection to investigate the therapeutic effect of ethosuximide on harmaline induced tremor. For the investigation, the tremor quantification apparatus of Example 2 was used.

Where [1] appears, read: wild-type mice (α1G+/+), 300 mg/kg intraperitoneal injection 30 minutes before harmaline injection.

As to `CCC1(C)CC(=O)NC1=O` (stereo not drawn) [ethosuximide], the “tremor inhibiting effect on harmaline induced tremor” value (“tremor inhibiting effect” for short) (wild-type mice (α1G+/+), 150 mg/kg intraperitoneal injection 30 minutes before harmaline injection) is reported as “tremor inhibiting effect was observed”. Also, under setting [1], the “mice that did not exhibit oscillation, symptom of tremor” value is 60%; the “mice that showed tremor” value is 40%; the “tremor inhibiting effect” value is reported as “tremor inhibiting effect was observed”.
For `COCC(=O)O[C@]1(CCN(C)CCCc2nc3ccccc3[nH]2)CCc2cc(F)ccc2[C@@H]1C(C)C` [mibefradil], the “tremor inhibiting effect” value was “tremor inhibiting effect was not detected” (wild-type mouse (α1G+/+), 10 mg/kg intraperitoneal injection 30 minutes before harmaline injection) and “tremor inhibiting effect was observed” (wild-type mouse (α1G+/+), osmotic pump containing 20 mM, 0.25 ul/hour, directly into inferior olive (IO) of the brain, two days later).
